Experimental data published in patent US11000033B2, “Ketone or oxime compound, and herbicide” (NISSAN CHEMICAL CORPORATION, priority 2014, dated 2021).

Columns and labels:
Format in all cases: in vivo
[1] = tested on: Echinochloa oryzacola Vasing.; assay: Test Example 1: herbicidal activity, application before weed generation in submerged conditions (symbol A); conditions: application herbicide amount 320 g/ha
Summary of the method: (§1)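 Application before weed emergence: an aqueous dilution of the emulsion formulation was poured onto the surface of 4 cm-deep floodwater on the day of sowing. Effect was judged after 3 weeks (greenhouse, 25–30 °C).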

Lolium multiflorum Lam. = assay: Test Example 4: herbicidal effect by soil treatment (symbol K)
Summary of the method: (§2)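 Seeds were sown in sterilized diluvial soil, covered with about 1.5 cm of soil, and the soil surface was sprayed with a water-diluted emulsion of the compound at a predetermined rate. Plants grew in a greenhouse at 25° C. to 30° C.; effects were scored visually 3 weeks after application.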

Chenopodium album [2] = assay: Test Example 5: herbicidal effect by foliage application, plastic box (symbol O); conditions: 320 g/ha, 3 weeks after application
Summary of the method: (§3)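 Herbicide, formulated as an emulsion and diluted in water, is sprayed onto the aerial parts of 14-day seedlings. These were grown at 25° C. to 30° C. in sterilized diluvial soil; effects are graded after 3 weeks.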

wheat [3] = assay: Test Example 4: effect on crop by soil treatment (symbol e)
Summary of the method: (§4)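 Plants grew in a 25° C. to 30° C. greenhouse after spot-sowing of seeds, including beet, rapeseed, wheat and rice, into sterilized diluvial soil under roughly 1.5 cm of cover soil.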

Cyperus difformis = assay: Test Example 3: herbicidal effect by foliage application, Wagner pot (symbol E); conditions: application herbicide amount 320 g/ha
Summary of the method: (§5)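 Seeds sown in alluvial soil kept under 0.1–0.5 cm water, greenhouse 25–30 °C; 14 d growth. Leaves treated by small sprayer with water-diluted emulsion at a predetermined rate. Effect graded by set scale, 3 weeks.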

wheat [4] = assay: Test Example 5: effect on crop by foliage application, plastic box (symbol e); conditions: 320 g/ha, 3 weeks after application
Summary of the method: (§6)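 A greenhouse held between 25° C. and 30° C. was used to grow plants sown spot-wise, beneath ~1.5 cm of soil, in boxes of sterilized diluvial soil.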

Chenopodium album [5] = assay: Test Example 4: herbicidal effect by soil treatment (symbol O)
Excerpt: Herbicidal Effect Test by Soil Treatment
Sterilized diluvial soil was placed in a plastic box having a length of 21 cm, a width of 13 cm, and a depth of 7 cm. Each of the seeds of Digitaria ciliaris, Setaria viridis, Echinochloa crus-galli var. crus-galli, Avena fatua, Alopecurus myosuroides, Lolium multiflorum Lam., Apera spica-venti, Abutilon theophrasti, Amaranthus retroflexus, Chenopodium album, Stellaria media, Galium spurium, Veronica persica, corn, soybean, rice, wheat, beet, and rapeseed was sowed in a spot-like manner and was covered with the soil of a thickness of about 1.5 cm. Subsequently, the emulsion agent of the compound present invention prepared in accordance with Formulation Example 2 was diluted with water so as to be a predetermined herbicide amount and the diluted emulsion agent was uniformly applied to the surface of the soil with a small-size spray. The plastic box was placed in a greenhouse of 25° C. to 30° C. to grow plant. 3 weeks later from the herbicide application, the effect to each plant was investigated in accordance with the criteria of Test Example 1.

rapeseed = assay: Test Example 4: effect on crop by soil treatment (symbol g)
Summary of the method: as §4

Apera spica-venti = assay: Test Example 5: herbicidal effect by foliage application, plastic box (symbol L); conditions: 320 g/ha, 3 weeks after application
Summary of the method: as §3

Amaranthus retroflexus = assay: Test Example 4: herbicidal effect by soil treatment (symbol N)
Summary of the method: as §2

beet = assay: Test Example 4: effect on crop by soil treatment (symbol f)
Summary of the method: as §4

Monochoria vaginalis = assay: Test Example 1: herbicidal activity, application before weed generation in submerged conditions (symbol C); conditions: application herbicide amount 320 g/ha
Summary of the method: as §1

Abutilon theophrasti = assay: Test Example 5: herbicidal effect by foliage application, plastic box (symbol M); conditions: 320 g/ha, 3 weeks after application
Summary of the method: as §3

Leptochloa chinensis = assay: Test Example 3: herbicidal effect by foliage application, Wagner pot (symbol D); conditions: application herbicide amount 320 g/ha
Summary of the method: as §5

Stellaria media = assay: Test Example 5: herbicidal effect by foliage application, plastic box (symbol P); conditions: 320 g/ha, 3 weeks after application
Summary of the method: as §3

Avena fatua = assay: Test Example 5: herbicidal effect by foliage application, plastic box (symbol I); conditions: 320 g/ha, 3 weeks after application
Summary of the method: as §3

rice plant = assay: Test Example 5: effect on crop by foliage application, plastic box (symbol b); conditions: 320 g/ha, 3 weeks after application
Summary of the method: as §6

rice = assay: Test Example 4: effect on crop by soil treatment (symbol b)
Summary of the method: as §4

[6] = application herbicide amount 320 g/ha

SMILES: COC(=O)C(C(=O)C1CC1)C1CC(O)=C(c2c(C)cc(Br)cc2C)C1=O (mixture of isomers) [10-002]
- A (Echinochloa oryzacola Vasing.) herbicidal effect grade [1]: 1 (Herbicidal ratio of 5% or higher and lower than 20%)
- Herbicidal effect grade, K: Lolium multiflorum Lam. (Lolium multiflorum Lam.; [6]): 4 (Herbicidal ratio of 70% or higher and lower than 90%)
- O: Chenopodium album, herbicidal effect grade (Chenopodium album [2]): 0 (Herbicidal ratio of 5% or lower (almost no effect))
- Effect on crop grade, e: wheat (wheat [3]; [6]): 0 (Herbicidal ratio of 5% or lower (almost no effect))
- E herbicidal effect grade (Cyperus difformis; Table 24): 3 (Herbicidal ratio of 40% or higher and lower than 70%)
- e: wheat, effect on crop grade (wheat [4]): 0 (Herbicidal ratio of 5% or lower (almost no effect))
- Herbicidal effect grade, O: Chenopodium album (Chenopodium album [5]; [6]): 0 (Herbicidal ratio of 5% or lower (almost no effect))
- Effect on crop grade, g: rapeseed (rapeseed; [6]): 0 (Herbicidal ratio of 5% or lower (almost no effect))
- L: Apera spica-venti, herbicidal effect grade (Apera spica-venti): 4 (Herbicidal ratio of 70% or higher and lower than 90%)
- Herbicidal effect grade, N: Amaranthus retroflexus (Amaranthus retroflexus; [6]): 0 (Herbicidal ratio of 5% or lower (almost no effect))
- Effect on crop grade, f: beet (beet; [6]): 0 (Herbicidal ratio of 5% or lower (almost no effect))
- C (Monochoria vaginalis) herbicidal effect grade (Monochoria vaginalis): 0 (Herbicidal ratio of 5% or lower (almost no effect))
- M: Abutilon theophrasti, herbicidal effect grade (Abutilon theophrasti): 0 (Herbicidal ratio of 5% or lower (almost no effect))
- D (Leptochloa chinensis) herbicidal effect grade (Leptochloa chinensis; Table 24): 5 (Herbicidal ratio of 90% or more (almost completely withered))
- P: Stellaria media, herbicidal effect grade (Stellaria media): 0 (Herbicidal ratio of 5% or lower (almost no effect))
- I: Avena fatua, herbicidal effect grade (Avena fatua): 5 (Herbicidal ratio of 90% or more (almost completely withered))
- b: directly sowed rice plant, effect on crop grade (rice plant): 4 (Herbicidal ratio of 70% or higher and lower than 90%)
- Effect on crop grade, b: directly sowed rice plant (rice; [6]): 4 (Herbicidal ratio of 70% or higher and lower than 90%)

SMILES: Cc1cc(C)c(C2=C(O)CC(CC(=NOCC(F)(F)F)C3CC3)C2=O)c(C)c1 (stereo not drawn) [1-131]
- Herbicidal effect grade, A: Echinochloa oryzacola Vasing. [1]: 5 (Herbicidal ratio of 90% or more (almost completely withered))
- K: Lolium multiflorum Lam., herbicidal effect grade (Lolium multiflorum Lam.; 320 g/ha): 5 (Herbicidal ratio of 90% or more (almost completely withered))
- O: Chenopodium album, herbicidal effect (criteria 0-5) (Chenopodium album [2]): 0 (Herbicidal ratio of 5% or lower (almost no effect))
- e: wheat, effect grade on crop (wheat [3]; 320 g/ha): 0 (Herbicidal ratio of 5% or lower (almost no effect))
- herbicidal effect on E, grade 0-5 (Cyperus difformis): 5 (Herbicidal ratio of 90% or more (almost completely withered))
- e: wheat, effect on crop (criteria 0-5) (wheat [4]): 2 (Herbicidal ratio of 20% or higher and lower than 40%)
- O: Chenopodium album, herbicidal effect grade (Chenopodium album [5]; 320 g/ha): 0 (Herbicidal ratio of 5% or lower (almost no effect))
- g: rapeseed, effect grade on crop (rapeseed; 320 g/ha): 4 (Herbicidal ratio of 70% or higher and lower than 90%)
- L: Apera spica-venti, herbicidal effect (criteria 0-5) (Apera spica-venti): 5 (Herbicidal ratio of 90% or more (almost completely withered))
- N: Amaranthus retroflexus, herbicidal effect grade (Amaranthus retroflexus; 320 g/ha): 0 (Herbicidal ratio of 5% or lower (almost no effect))
- f: beet, effect grade on crop (beet; 320 g/ha): 0 (Herbicidal ratio of 5% or lower (almost no effect))
- Herbicidal effect grade, C: Monochoria vaginalis (Monochoria vaginalis): 1 (Herbicidal ratio of 5% or higher and lower than 20%)
- M: Abutilon theophrasti, herbicidal effect (criteria 0-5) (Abutilon theophrasti): 0 (Herbicidal ratio of 5% or lower (almost no effect))
- herbicidal effect on D (Leptochloa chinensis), grade 0-5 (Leptochloa chinensis): 5 (Herbicidal ratio of 90% or more (almost completely withered))
- P: Stellaria media, herbicidal effect (criteria 0-5) (Stellaria media): 0 (Herbicidal ratio of 5% or lower (almost no effect))
- I: Avena fatua, herbicidal effect (criteria 0-5) (Avena fatua): 4 (Herbicidal ratio of 70% or higher and lower than 90%)
- b: directly sowed rice plant, effect on crop (criteria 0-5) (rice plant): 4 (Herbicidal ratio of 70% or higher and lower than 90%)
- b: directly sowed rice plant, effect grade on crop (rice; 320 g/ha): 5 (Herbicidal ratio of 90% or more (almost completely withered))
